The values below come from patent US20250213587A1, “ITK INHIBITORS FOR INCREASING TH1 CELL ACTIVITY” (Corvus Pharmaceuticals, Inc., priority 2022, published 2025).

Entries after “also recorded” stand apart in the source; their conditions may differ.

For one test, the target named is T1, ITK (Homo sapiens, UniProt Q08881).
T1 sequence (Q08881 1-620): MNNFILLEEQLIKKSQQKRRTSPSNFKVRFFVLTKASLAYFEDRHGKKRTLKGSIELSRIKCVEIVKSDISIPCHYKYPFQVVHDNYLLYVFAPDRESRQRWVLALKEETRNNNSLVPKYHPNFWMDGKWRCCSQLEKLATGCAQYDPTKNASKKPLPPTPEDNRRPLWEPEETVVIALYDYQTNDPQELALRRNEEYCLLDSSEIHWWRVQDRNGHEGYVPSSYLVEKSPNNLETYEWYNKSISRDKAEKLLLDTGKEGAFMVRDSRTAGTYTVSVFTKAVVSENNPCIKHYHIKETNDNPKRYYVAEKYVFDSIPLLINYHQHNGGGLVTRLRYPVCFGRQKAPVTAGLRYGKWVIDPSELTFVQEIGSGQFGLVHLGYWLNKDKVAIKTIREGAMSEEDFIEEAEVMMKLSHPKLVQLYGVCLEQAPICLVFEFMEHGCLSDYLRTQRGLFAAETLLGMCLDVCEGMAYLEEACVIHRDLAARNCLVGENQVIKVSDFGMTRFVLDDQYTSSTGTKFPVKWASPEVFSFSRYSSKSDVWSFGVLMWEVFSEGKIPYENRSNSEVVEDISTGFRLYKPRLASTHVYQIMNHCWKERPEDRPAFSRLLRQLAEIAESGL
In words: Jump dilution assay. In kind it is binding. More on the design: purchased Invitrogen. How it is done:
The assay format is similar to the Competitive Tracer-binding Assay and relies on the reversible binding of tracer 236 to recombinant tagged human ITK. […] The mixture was then filtered through a desalting column (Thermo Scientific, Zeba Spin Desalting Column, 40K MWCO) to remove unbound inhibitor. The assay was initiated immediately after the desalting step by diluting the eluate containing the inhibited kinase complex 50-fold into a solution of anti-tag antibody (2 nM final) and excess tracer 236 (40 nM final). Dissociation of inhibitor and binding of tracer was monitored immediately after assay initiation using an EnVision plate reader (excitation 340 nm, dual emission at 665 nm and 615 nm). Reagents including GST-tagged recombinant human ITK, Kinase tracer 236, Lanthascreen Eu-Anti-GST antibody and kinase buffer A were purchased from ThermoFisher Scientific/Invitrogen. Each data point represents the mean of technical triplicates. Equation 3 was fitted to the BMS-509744 data to obtain the rate constant using GraphPad Prism from which the half-life was calculated.

The subject of a further test is other TEC kinases. The conditions noted are these: literature; cited from earlier work.

Turning to `COc1cc(C)c(Sc2cnc(NC(=O)c3ccc(CNC(C)C(C)(C)C)cc3)s2)cc1C(=O)N1CCN(C(C)=O)CC1` (stereo not drawn) [BMS-509744, reference compound], the “reversibility of ITK inhibition on dilution” value at ITK (dilution into competitive probe) is “reversible; also recorded: rapid dissociation”. On ITK (dilution into excess tracer 236), the “half-life of inhibitor-ITK complex” value came to 2.6 min.
For `C=CC(=O)N1CCC[C@@H]1Cn1c(NC(=O)c2ccc(C(F)F)s2)nc2cc(CN[C@@H](C)C(C)(C)C)ccc21` [PRN694], the “inhibition of other TEC kinases” value in the test with other TEC kinases is reported as “significant inhibition”.
